# Test results taken from patent publication US6268533A, “Formoterol process” (Sepracor Inc., priority 2000, dated 2001).
# Structures can show the parent of a compound that is named as a salt.
# Key:
# [1] = moisture sorption of salts, water content by Karl Fischer titration; type: physicochemical; conditions: for moisture sorption compared with other salts or forms (in words): comparison of salts/polymorphs of R,R-formoterol; for water content (moisture sorption): room temperature
# Description: Water absorption is a major problem in formulating a medicament for therapeutic use, and therefore a salt that has minimal water absorption offers significant advantages. In a series of experiments various salts of R,R-formoterol were prepared.
# The salts were exposed to varying levels of humidity at room temperature for 1 to 28 days, and the samples were analyzed for water content by Karl Fischer titration. The values are given in % w/w.
# [2] = total impurities of crystal forms after heating; type: physicochemical; conditions: for decomposition (total impurities study): 175° C.
# Text: The two crystal forms of (R,R)-formoterol tartrate were also studied by measuring the total impurities in the material from each of the experiments in Table 6.
# [3] = appearance of sample after TGA; type: physicochemical
# Description: In each experiment, the polymorph was warmed from 30° C. to the designated temperature at 10° C./min and held at the designated temperature for 15 minutes. The loss on drying (LOD) was measured, and the appearance of the material was noted. […] The differences in appearance of each crystal form at the designated temperatures were consistent with the changes in LODs.
# [4] = thermal stability of crystal forms, loss on drying by TGA; type: physicochemical; conditions: for % LOD by TGA: held 15 min
# Description: In each experiment, the polymorph was warmed from 30° C. to the designated temperature at 10° C./min and held at the designated temperature for 15 minutes. The loss on drying (LOD) was measured, and the appearance of the material was noted.
# [5] = test system: β-adrenoceptors; conditions: four isomers, in vitro; cited from earlier work
# [6] = test system: β2 -selective adrenoceptor; conditions: inhaled; background statement; cited from earlier work
# [7] = test system: guinea pig trachea; conditions: four isomers compared; cited from earlier work
# [8] = stability of formoterol salts in the presence of lactose and water; type: physicochemical
# Text: Alternatively, if lactose is to be used, as described below, the dry powder must be packaged in such a manner as to exclude moisture.
# [9] = 85% RH (printed RE for the fumarate)
smiles,measurement,setting,value
COc1ccc(C[C@@H](C)NC[C@H](O)c2ccc(O)c(NC=O)c2)cc1 [P1],water absorbed,[1]; 85% RH for 11 days,less than 0.1%
same,moisture sorption compared with other salts or forms (in words),[1],equivalent in moisture sorption
same,decomposition (total impurities study),[2],nearly completely decomposed
same,appearance of sample after TGA,[3]; 75° C.,white
same,appearance of sample after TGA,[3]; 100° C.,white
same,appearance of sample after TGA,[3]; 125° C.,white
same,appearance of sample after TGA,[3]; 150° C.,off-white
same,appearance of sample after TGA,[3]; 175° C.,brown
same,% LOD by TGA,[4]; 75° C.,0.092%
same,% LOD by TGA,[4]; 100° C.,0.065%
same,% LOD by TGA,[4]; 125° C.,0.230%
same,% LOD by TGA,[4]; 150° C.,0.390%
same,LOD in words,[4]; 175° C.,"significant LODs, the result of decomposition"
same,% LOD by TGA,[4]; 175° C.,10.805%
"COc1ccc(C[C@H](C)NC[C@@H](O)c2ccc(O)c(NC=O)c2)cc1 [(S,S)]",order of potency,[5],"(R,R)>>(R,S)=(S,R)>(S,S)"
"COc1ccc(C[C@@H](C)NC[C@H](O)c2ccc(O)c(NC=O)c2)cc1 (relative stereo) [Formoterol, (+/-) N-[2-hydroxy-5-[1-hydroxy-2[[2-(p-methoxyphenyl)-2-propyl]amino]ethyl]phenyl]-formamide]",bronchodilating effect,[6],long lasting bronchodilating effect
"COc1ccc(C[C@@H](C)NC[C@H](O)c2ccc(O)c(NC=O)c2)cc1 [(R,R)-Formoterol-HCl]",water content (moisture sorption),"[1]; 11% relative humidity, day 1",0.5735 % w/w
same,water content (moisture sorption),"[1]; 11% relative humidity, day 3",0.553 % w/w
same,water content (moisture sorption),"[1]; 11% relative humidity, day 8",0.3656 % w/w
same,water content (moisture sorption),"[1]; 11% relative humidity, day 14",0.4385 % w/w
same,water content (moisture sorption),"[1]; 11% relative humidity, day 28",0.2644 % w/w
same,water content (moisture sorption),"[1]; 43% relative humidity, day 1",0.8502 % w/w
same,water content (moisture sorption),"[1]; 43% relative humidity, day 3",1.1636 % w/w
same,water content (moisture sorption),"[1]; 43% relative humidity, day 8",0.8781 % w/w
same,water content (moisture sorption),"[1]; 43% relative humidity, day 14",0.9802 % w/w
same,water content (moisture sorption),"[1]; 43% relative humidity, day 28",0.8133 % w/w
same,water absorbed,[1]; 75% RH,1.3-1.4%
same,water content (moisture sorption),"[1]; 75% relative humidity, day 1",1.5335 % w/w
same,water content (moisture sorption),"[1]; 75% relative humidity, day 3",1.3288 % w/w
same,water content (moisture sorption),"[1]; 75% relative humidity, day 8",1.4931 % w/w
same,water content (moisture sorption),"[1]; 75% relative humidity, day 14",1.4585 % w/w
same,water content (moisture sorption),"[1]; 75% relative humidity, day 28",1.221 % w/w
same,water content (moisture sorption),"[1]; 89% relative humidity, day 1",1.4573 % w/w
same,water content (moisture sorption),"[1]; 89% relative humidity, day 3",2.419 % w/w
same,water content (moisture sorption),"[1]; 89% relative humidity, day 8",1.6487 % w/w
same,water content (moisture sorption),"[1]; 89% relative humidity, day 14",1.5739 % w/w
same,water content (moisture sorption),"[1]; 89% relative humidity, day 28",1.1139 % w/w
same,moisture sorption compared with other salts or forms (in words),[1]; listed as hydrochloride,somewhat better at 43% RE
"COc1ccc(C[C@@H](C)NC[C@H](O)c2ccc(O)c(NC=O)c2)cc1 [R,R-formoterol L-tartrate]",hygroscopicity,[1],non-hygroscopic
same,water content (moisture sorption),"[1]; 11% relative humidity, day 1",0.0956 % w/w
same,water content (moisture sorption),"[1]; 11% relative humidity, day 3",0.1062 % w/w
same,water content (moisture sorption),"[1]; 11% relative humidity, day 8",0.0842 % w/w
same,water content (moisture sorption),"[1]; 11% relative humidity, day 14",0.1377 % w/w
same,water content (moisture sorption),"[1]; 11% relative humidity, day 28",0.0871 % w/w
same,water content (moisture sorption),"[1]; 43% relative humidity, day 1",0.1091 % w/w
same,water content (moisture sorption),"[1]; 43% relative humidity, day 3",0.1406 % w/w
same,water content (moisture sorption),"[1]; 43% relative humidity, day 8",0.0922 % w/w
same,water content (moisture sorption),"[1]; 43% relative humidity, day 14",0.104 % w/w
same,water content (moisture sorption),"[1]; 43% relative humidity, day 28",0.0705 % w/w
same,water content (moisture sorption),"[1]; 75% relative humidity, day 1",0.0895 % w/w
same,water content (moisture sorption),"[1]; 75% relative humidity, day 3",0.1367 % w/w
same,water content (moisture sorption),"[1]; 75% relative humidity, day 8",0.0732 % w/w
same,water content (moisture sorption),"[1]; 75% relative humidity, day 14",0.1146 % w/w
same,water content (moisture sorption),"[1]; 75% relative humidity, day 28",0.0691 % w/w
same,water absorbed,[1]; 89% RH,0.10 to 0.13%
same,water content (moisture sorption),"[1]; 89% relative humidity, day 1",0.1144 % w/w
same,water content (moisture sorption),"[1]; 89% relative humidity, day 3",0.1379 % w/w
same,water content (moisture sorption),"[1]; 89% relative humidity, day 8",0.1104 % w/w
same,water content (moisture sorption),"[1]; 89% relative humidity, day 14",0.1097 % w/w
same,water content (moisture sorption),"[1]; 89% relative humidity, day 28",0.1122 % w/w
same,water content (moisture sorption),"[1]; 93% relative humidity, day 1",0.1346 % w/w
same,water content (moisture sorption),"[1]; 93% relative humidity, day 3",0.2077 % w/w
same,water content (moisture sorption),"[1]; 93% relative humidity, day 8",0.1076 % w/w
same,water content (moisture sorption),"[1]; 93% relative humidity, day 14",0.2972 % w/w
same,water content (moisture sorption),"[1]; 93% relative humidity, day 28",0.1765 % w/w
same,moisture sorption compared with other salts or forms (in words),"[1]; listed as L-tartrate of R,R-formoterol",superior to all of the salts tested
COc1ccc(C[C@@H](C)NC[C@H](O)c2ccc(O)c(NC=O)c2)cc1 [D-tartrate],water absorbed,[1]; [9],0.4-0.5%
same,moisture sorption compared with other salts or forms (in words),[1],somewhat better than the hydrochloride
"COc1ccc(C[C@H](C)NC[C@H](O)c2ccc(O)c(NC=O)c2)cc1 [(R,S), reference compound]",order of potency,[5],"(R,R)>>(R,S)=(S,R)>(S,S)"
"COc1ccc(C[C@@H](C)NC[C@H](O)c2ccc(O)c(NC=O)c2)cc1 [(R,R)-isomer]","relaxing activity, rank of potency",[7],most potent
same,order of potency,[5],"(R,R)>>(R,S)=(S,R)>(S,S)"
COc1ccc(C[C@@H](C)NC[C@H](O)c2ccc(O)c(NC=O)c2)cc1 [fumarate],water absorbed,[1]; [9],6%
same,moisture sorption compared with other salts or forms (in words),[1],somewhat better at 43% RE
"COc1ccc(C[C@@H](C)NC[C@H](O)c2ccc(O)c(NC=O)c2)cc1 [(R,R)-Formoterol-SO4]",water content (moisture sorption),"[1]; 11% relative humidity, day 1",1.2251 % w/w
same,water content (moisture sorption),"[1]; 11% relative humidity, day 3",1.3892 % w/w
same,water content (moisture sorption),"[1]; 11% relative humidity, day 8",0.9574 % w/w
same,water content (moisture sorption),"[1]; 11% relative humidity, day 14",1.209 % w/w
same,water content (moisture sorption),"[1]; 11% relative humidity, day 28",0.7866 % w/w
same,water absorbed,[1]; 43% relative humidity,more than 3 % by weight
same,water content (moisture sorption),"[1]; 43% relative humidity, day 1",2.9647 % w/w
same,water content (moisture sorption),"[1]; 43% relative humidity, day 3",3.4998 % w/w
same,water content (moisture sorption),"[1]; 43% relative humidity, day 8",3.4048 % w/w
same,water content (moisture sorption),"[1]; 43% relative humidity, day 14",2.2985 % w/w
same,water content (moisture sorption),"[1]; 43% relative humidity, day 28",3.1595 % w/w
"COc1ccc(C[C@@H](C)NC[C@H](O)c2ccc(O)c(NC=O)c2)cc1 (relative stereo) [racemic (R,R/S,S) formoterol hemifumarate hydrate]",incompatibility with lactose on encountering moisture,[8],not observed
COc1ccc(C[C@@H](C)NC[C@H](O)c2ccc(O)c(NC=O)c2)cc1 [P2],water absorbed,[1]; 85% RH for 11 days,less than 0.1%
same,moisture sorption compared with other salts or forms (in words),[1],equivalent in moisture sorption
same,total impurities compared with P1,[2]; 100° C. and higher,higher levels of total impurities
same,decomposition (total impurities study),[2],nearly completely decomposed
same,appearance of sample after TGA,[3]; 75° C.,white
same,appearance of sample after TGA,[3]; 100° C.,white
same,appearance of sample after TGA,[3]; 125° C.,off-white
same,appearance of sample after TGA,[3]; 150° C.,tan
same,appearance of sample after TGA,[3]; 175° C.,brown
same,% LOD by TGA,[4]; 75° C.,0.020%
same,% LOD by TGA,[4]; 100° C.,0.045%
same,% LOD by TGA,[4]; 125° C.,0.305%
same,% LOD by TGA,[4]; 150° C.,1.230%
same,LOD in words,[4]; 175° C.,"significant LODs, the result of decomposition"
same,% LOD by TGA,[4]; 175° C.,12.990%
"COc1ccc(C[C@@H](C)NC[C@@H](O)c2ccc(O)c(NC=O)c2)cc1 [(S,R), reference compound]",order of potency,[5],"(R,R)>>(R,S)=(S,R)>(S,S)"
